Test results published in paper PMC10653547, “Synergistic effect of two antimicrobial peptides, BP203 and MAP-0403 J-2 with conventional antibiotics against colistin-resistant Escherichia coli and Klebsiella pneumoniae clinical isolates” (PLOS ONE, 2023).

Assays:
[1] = tested on: colistin-resistant E. coli clinical isolates; assay: Disk diffusion antimicrobial susceptibility testing (CLSI); format: cell-based, Escherichia coli; conditions: for %Resistance: ten E. coli isolates, disk diffusion
Description: (§1) Ten non-duplicate clinical isolates of colistin-resistant E. coli (EC) and ten non-duplicate clinical isolates of colistin-resistant K. pneumoniae (KP) were obtained from the bacterial repository of the Division of Infectious Diseases and Tropical Medicine, Department of Medicine, Faculty of Medicine Siriraj Hospital, Mahidol University. The species identification was conducted through standard biochemical tests. Antimicrobial susceptibility testing was carried out using the disk diffusion method following CLSI guidelines. Additionally, the assessment of colistin resistance in all isolates was performed by broth microdilution following CLSI recommendations. […] The amino acid sequences of BP203 and MAP-0403 J-2 were retrieved from previous studies. These peptides are BP100 and MAP-0403 analogs, respectively. […] Antibiotic disks and defibrinated sheep blood were obtained from Oxoid (Basingstoke, UK). All culture media were purchased from Becton Dickinson (Frankin Lakes, NJ, USA). All chemicals were obtained from Sigma-Aldrich (St. Louis, MO, USA).

[2] = tested on: colistin-resistant K. pneumoniae clinical isolates; assay: as above; format: cell-based, Klebsiella pneumoniae; conditions: for %Resistance: ten K. pneumoniae isolates, disk diffusion; on Interpreted results of disk diffusion: key: R: resistant; I: intermediate; SDD: susceptible-dose dependent; S: sensitive
Description: as §1

Compound | Interpreted results of disk diffusion ([1]; EC-01) | Interpreted results of disk diffusion ([1]; EC-02) | Interpreted results of disk diffusion ([1]; EC-03) | Interpreted results of disk diffusion ([1]; EC-04) | Interpreted results of disk diffusion ([1]; EC-05) | Interpreted results of disk diffusion ([1]; EC-06) | Interpreted results of disk diffusion ([1]; EC-07) | Interpreted results of disk diffusion ([1]; EC-08) | Interpreted results of disk diffusion ([1]; EC-09) | Interpreted results of disk diffusion ([1]; EC-10) | %Resistance [1] | Interpreted results of disk diffusion ([2]; KP-01) | Interpreted results of disk diffusion ([2]; KP-02) | Interpreted results of disk diffusion ([2]; KP-03) | Interpreted results of disk diffusion ([2]; KP-04) | Interpreted results of disk diffusion ([2]; KP-05) | Interpreted results of disk diffusion ([2]; KP-06) | Interpreted results of disk diffusion ([2]; KP-07) | Interpreted results of disk diffusion ([2]; KP-08) | %Resistance [2] | further results
C[C@@H](O)[C@H]1C(=O)N2C(C(=O)O)=C(S[C@@H]3CN[C@H](C(=O)Nc4cccc(C(=O)O)c4)C3)[C@H](C)[C@H]12 [ETP, ertapenem] | S | S | S | S | S | S | S | S | S | S | 0% | R | R | R | R | R | R | R | R | 100% | Interpreted results of disk diffusion ([2]; KP-09): R; Interpreted results of disk diffusion ([2]; KP-10): R
CNC(C)C1CCC(N)C(OC2C(N)CC(N)C(OC3OCC(C)(O)C(NC)C3O)C2O)O1 (stereo not shown) [GM, gentamicin] | R | S | R | R | R | R | S | R | R | R | 80% | S | R | S | S | S | S | S | S | 10% | Interpreted results of disk diffusion ([2]; KP-09): S; Interpreted results of disk diffusion ([2]; KP-10): S
CO/N=C(\C(=O)N[C@@H]1C(=O)N2C(C(=O)O)=C(CSc3nc(=O)c(=O)[nH]n3C)CS[C@H]12)c1csc(N)n1 [CRO, ceftriaxone] | R | R | R | R | R | R | R | R | R | R | 100% | R | R | R | R | R | R | R | R | 100% | Interpreted results of disk diffusion ([2]; KP-09): R; Interpreted results of disk diffusion ([2]; KP-10): R
C[C@@H]1O[C@@H]1P(=O)(O)O [FOS, fosfomycin] | S | S | S | R | S | S | S | S | S | S | 10% | S | R | I | R | S | R | S | R | 60% | Interpreted results of disk diffusion ([2]; KP-09): R; Interpreted results of disk diffusion ([2]; KP-10): R
C[C@H]1[C@H](NC(=O)/C(=N\OC(C)(C)C(=O)O)c2csc(N)n2)C(=O)N1S(=O)(=O)O [ATM, aztreonam] | R | R | R | R | S | I | R | S | R | R | 70% | – | – | – | – | – | – | – | – | 100% | –
CO/N=C(\C(=O)N[C@@H]1C(=O)N2C(C(=O)[O-])=C(C[N+]3(C)CCCC3)CS[C@H]12)c1csc(N)n1 [FEP, cefepime] | R | R | R | R | SDD | S | R | SDD | R | R | 70% | R | R | R | R | R | R | R | R | 100% | Interpreted results of disk diffusion ([2]; KP-09): R; Interpreted results of disk diffusion ([2]; KP-10): R
CO[C@@]1(NC(=O)Cc2cccs2)C(=O)N2C(C(=O)O)=C(COC(N)=O)CS[C@@H]21 [FOX, cefoxitin] | S | S | S | I | S | S | S | S | S | S | 0% | R | R | R | R | R | R | R | R | 100% | Interpreted results of disk diffusion ([2]; KP-09): R; Interpreted results of disk diffusion ([2]; KP-10): R
NCC[C@H](O)C(=O)N[C@@H]1C[C@H](N)[C@@H](O[C@H]2O[C@H](CN)[C@@H](O)[C@H](O)[C@H]2O)[C@H](O)[C@H]1O[C@H]1O[C@H](CO)[C@@H](O)[C@H](N)[C@H]1O [AK, amikacin] | S | S | S | S | S | S | S | S | S | S | 0% | S | R | R | R | I | R | S | S | 40% | Interpreted results of disk diffusion ([2]; KP-09): S; Interpreted results of disk diffusion ([2]; KP-10): S
